Test results reported in patent US11185516B2 (Laboratorios Silanes S.A. DE C.V., priority 2016, dated 2021).

Columns and labels:
GPBP = GPBP (Mus musculus, UniProt Q9EQG9); details: 10 mM, 3 h, FIG. 6B
Protocol: The cells were lysed in a lyse buffer ([…], […], 1% Triton X-100, 1 μM phenylmethylsulphonylfluoride (PMSF) and 10 μg/mL leupeptin) for 30 min at 4° C. Lysates were centrifuged at 16000×g for 5 min at 4° C. and the total protein concentration of the supernatants determined with the Bradford reagent (Bio-Rad). The samples were analyzed by Western blot using the anti-GPBP mAb-N27 and detected with chemoluminiscence (ECL Prime, GE Healthcare).

GPBP and AKT = GPBP and AKT (Homo sapiens, UniProt Q9Y5P4); details: 5 mM
GPBP and AKT, sequence (Q9Y5P4 whole entry): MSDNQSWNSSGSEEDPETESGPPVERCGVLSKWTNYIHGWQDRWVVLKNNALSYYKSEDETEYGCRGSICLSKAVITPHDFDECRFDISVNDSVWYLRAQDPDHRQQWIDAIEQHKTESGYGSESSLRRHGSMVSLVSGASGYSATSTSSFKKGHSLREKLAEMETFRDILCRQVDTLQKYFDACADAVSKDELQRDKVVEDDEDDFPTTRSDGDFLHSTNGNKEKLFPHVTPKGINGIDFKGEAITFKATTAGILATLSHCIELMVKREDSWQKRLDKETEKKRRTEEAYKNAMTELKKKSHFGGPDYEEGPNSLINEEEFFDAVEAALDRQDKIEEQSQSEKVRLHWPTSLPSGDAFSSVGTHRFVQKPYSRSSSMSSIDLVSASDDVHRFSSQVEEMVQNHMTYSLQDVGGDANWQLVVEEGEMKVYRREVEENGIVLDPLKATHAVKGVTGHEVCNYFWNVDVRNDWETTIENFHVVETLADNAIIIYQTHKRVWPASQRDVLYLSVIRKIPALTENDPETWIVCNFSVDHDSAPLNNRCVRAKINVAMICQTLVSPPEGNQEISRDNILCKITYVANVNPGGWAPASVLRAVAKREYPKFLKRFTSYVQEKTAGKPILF
Protocol: Two hundred nanograms of AS160 (Origene Technologies) was incubated either in the absence (−) or in the presence (+) of FLAG-GPBP (270 ng), AKT (Millipore) (200 ng) and SLN1 or SLN2 (5 mM) in phosphorylation solution (β-glycerophosphate 25 mM (pH 7.0), EDTA 0.5 mM, EGTA 0.5 mM, MgCl2 8 mM, MnCl2 5 mM, DTT 1 mM) without ATP for 10 min at RT, after which [γ-^32P] ATP (Perkin Elmer) (0.132 μM) and ATP (Sigma) (100 μM) were added. Reaction cocktails (25 μl) were incubated at 30° C. for 15 min, and stirred (350 rpm).

[1] = system: proIL-1β, TNFα, iNOS, IL-6, MCP-1 and IL-12; test: Inflammation marker expression in palmitate-stimulated L1 adipocytes (RT-qPCR); assay type: cell-based; details: 10 mM, palmitate 500 μM, 24 h
Protocol: Palmitate is a saturated fatty acid that simulates an experimental obese state. It can be used as a pro-inflammatory stimulant for cytokines such as proIL-1β, TNFα, iNOS, IL-6, MCP-1 and IL-12.
Next, the relative expression of inflammation markers was analyzed by RT and qPCR using HPRT-1 as a normalizer and the untreated cell expression levels as a reference (for MCP-1 and IL-12) or those treated palmitate. After the treatments, culture media were collected and subsequently analyzed, cells were washed with PBS, and RNA was extracted (illustra RNAspin Mini, GE Healthcare) and reverse transcribed (High Capacity cDNA Reverse Transcription Kit, Life Technologies). The expression of the genes that were the object of the study was analyzed by qPCR using specific probes (TaqMan® Gene Expression Assays, Life Technologies). The relative expression (RQ), represented in the figure, was calculated by the ΔΔCt method.

IRS2 knockout mice = details: 100 mg/kg/day, 4 weeks
Source text: Insulin receptor substrate 2 (IRS2) is a cytoplasmic signaling molecule that mediates effects of insulin, insulin-like growth factor 1, and other cytokines by acting as a molecular adaptor between diverse receptor tyrosine kinases and downstream effectors. Mice lacking IRS2 (e.g., IRS2 knockout mice) have a diabetic phenotype and increased serum leptin levels. Leptin is a hormone made by adipose cells that regulates appetite and inhibits hunger.
The levels of fasting serum leptin, at the beginning and at the end of the treatments, were determined with a kit (Sigma) following the instructions by the manufacturer.

IRS2−/− (KO) mice = test: Fasting glycemia and insulinemia in female IRS2−/− mice; assay type: in vivo, mouse; details: 4 weeks
Source text: Insulin resistance characterizes type 2 diabetes, obesity, and the metabolic syndrome. Thus, insulin sensitivity is a major therapeutic objective for these metabolic diseases. Insulin receptor substrate (IRS) proteins regulate the physiological actions of insulin upon binding to the receptor. Specific deletion of IRS2 in mice produces diabetes due to a developmental reduction of the pancreatic β-cell mass and the inability of existing β-cells to expand in response to peripheral insulin resistance. Additionally, IRS2-deficiency in mice causes hepatic insulin resistance concurrent with failed suppression of hepatic glucose production. While male IRS2−/− mice often die of diabetic complications by 12 weeks of age, females IRS2−/− mice develop a milder form of diabetes and many live up to 6 months. The observation that female IRS2−/− mice eat more than controls led to the discovery that this molecule is critical for hypothalamic regulation of food intake.
The mean glycemic values are represented per group (n=3) pre-treatment (black bars) and post-treatment (gray bars) along with their standard deviations. […] The fasting serum insulin levels taken pre-treatment (black bars) and post-treatment (gray bars) were determined using a kit (Millipore), following the manufacturer's instructions. Mean values and standard deviations are presented for each group (n=3) (FIG. 12D).
Due to peripheral resistance to insulin, the IRS2−/− mice also develop hyperinsulinemia.

GPBP, sequence (Q9EQG9 whole entry): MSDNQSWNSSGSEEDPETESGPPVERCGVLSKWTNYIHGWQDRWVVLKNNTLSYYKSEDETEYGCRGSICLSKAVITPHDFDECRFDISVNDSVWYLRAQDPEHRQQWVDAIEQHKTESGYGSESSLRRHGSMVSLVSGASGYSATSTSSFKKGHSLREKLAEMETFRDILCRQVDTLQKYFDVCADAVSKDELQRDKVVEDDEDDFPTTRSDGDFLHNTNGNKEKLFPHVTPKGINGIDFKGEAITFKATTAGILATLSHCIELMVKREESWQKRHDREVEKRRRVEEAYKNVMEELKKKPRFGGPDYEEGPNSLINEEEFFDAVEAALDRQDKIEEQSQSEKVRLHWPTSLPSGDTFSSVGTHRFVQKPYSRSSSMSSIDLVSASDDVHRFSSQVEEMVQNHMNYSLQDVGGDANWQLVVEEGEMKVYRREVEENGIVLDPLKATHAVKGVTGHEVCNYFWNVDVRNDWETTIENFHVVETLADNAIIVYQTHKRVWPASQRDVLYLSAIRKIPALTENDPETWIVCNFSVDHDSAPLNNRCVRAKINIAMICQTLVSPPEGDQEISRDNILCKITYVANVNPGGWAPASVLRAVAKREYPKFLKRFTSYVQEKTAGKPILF

Structure (SMILES): CN(C)C(=N)NC(=N)N [Metformin glycinate, N,N-dimethylimidodicarbonimidic diamide glycinate]
- GPBP dephosphorylation vs untreated or metformin treated cells (GPBP): more GPBP dephosphorylation
- GPBP and AKT cross activation (GPBP and AKT): counteracted GPBP and AKT cross activation
- anti-inflammatory effectiveness, comparison of the two salts [1]: significantly more effective than metformin hydrochloride
- inflammatory response of palmitate-stimulated adipocytes [1]: attenuated the inflammatory response
- reduction of fasting serum leptin levels compared to metformin hydrochloride (IRS2 knockout mice): greater reduction of fasting serum leptin levels
- fasting serum leptin levels (IRS2 knockout mice; end vs beginning of treatment): reduced fasting serum leptin levels
- fasting glycemia post-treatment (IRS2−/− (KO) mice; 100 mg/kg/day with food, 10-12 weeks old): significantly lower than those pre-treatments
- fasting insulin levels (IRS2−/− (KO) mice; 100 mg/kg/day): lowered the fasting insulin levels
